The CheMixHub viscosity set
± gives the uncertainty stated by the source.

Assay: xn = mol fraction of the nth substance listed

What does the source list for CCCCCO + CCCCCCC?
viscosity (293.15 K, 100 kPa, x2 = 0.0249): 3.71 ± 0.044 mPa·s; viscosity (293.15 K, 100 kPa, x2 = 0.081): 3.099 ± 0.037 mPa·s; viscosity (293.15 K, 100 kPa, x2 = 0.1471): 2.521 ± 0.03 mPa·s; viscosity (293.15 K, 100 kPa, x2 = 0.259): 1.798 ± 0.022 mPa·s; viscosity (293.15 K, 100 kPa, x2 = 0.3365): 1.429 ± 0.018 mPa·s; viscosity (293.15 K, 100 kPa, x2 = 0.3987): 1.196 ± 0.015 mPa·s; viscosity (293.15 K, 100 kPa, x2 = 0.4734): 0.975 ± 0.013 mPa·s; viscosity (293.15 K, 100 kPa, x2 = 0.5627): 0.776 ± 0.01 mPa·s; viscosity (293.15 K, 100 kPa, x2 = 0.6484): 0.641 ± 0.009 mPa·s; viscosity (293.15 K, 100 kPa, x2 = 0.734): 0.544 ± 0.008 mPa·s; viscosity (293.15 K, 100 kPa, x2 = 0.8184): 0.474 ± 0.007 mPa·s; viscosity (293.15 K, 100 kPa, x2 = 0.9043): 0.42 ± 0.007 mPa·s; viscosity (293.2 K, 101 kPa, x1 = 0.3): 0.655 ± 0.045 mPa·s; viscosity (293.8 K, 101 kPa, x1 = 0.5): 0.924 ± 0.06 mPa·s; viscosity (293.9 K, 101 kPa, x1 = 0.051): 0.491 ± 0.036 mPa·s; viscosity (298.15 K, 100 kPa, x2 = 0.0249): 3.218 ± 0.038 mPa·s; viscosity (298.15 K, 100 kPa, x2 = 0.081): 2.702 ± 0.032 mPa·s; viscosity (298.15 K, 100 kPa, x2 = 0.1471): 2.211 ± 0.027 mPa·s; viscosity (298.15 K, 100 kPa, x2 = 0.259): 1.591 ± 0.02 mPa·s; viscosity (298.15 K, 100 kPa, x2 = 0.3365): 1.277 ± 0.016 mPa·s; viscosity (298.15 K, 100 kPa, x2 = 0.3987): 1.076 ± 0.014 mPa·s; viscosity (298.15 K, 100 kPa, x2 = 0.4734): 0.884 ± 0.012 mPa·s; viscosity (298.15 K, 100 kPa, x2 = 0.5627): 0.712 ± 0.01 mPa·s; viscosity (298.15 K, 100 kPa, x2 = 0.6484): 0.594 ± 0.008 mPa·s; viscosity (298.15 K, 100 kPa, x2 = 0.734): 0.507 ± 0.008 mPa·s; viscosity (298.15 K, 100 kPa, x2 = 0.8184): 0.445 ± 0.007 mPa·s; viscosity (298.15 K, 100 kPa, x2 = 0.9043): 0.396 ± 0.006 mPa·s; viscosity (298.15 K, 101.33 kPa, x1 = 0.0652): 0.4117 ± 0.0039 mPa·s; viscosity (298.15 K, 101.33 kPa, x1 = 0.1304): 0.4449 ± 0.0041 mPa·s; viscosity (298.15 K, 101.33 kPa, x1 = 0.2489): 0.5244 ± 0.0047 mPa·s; viscosity (298.15 K, 101.33 kPa, x1 = 0.3595): 0.6427 ± 0.0056 mPa·s; viscosity (298.15 K, 101.33 kPa, x1 = 0.4654): 0.8116 ± 0.007 mPa·s; viscosity (298.15 K, 101.33 kPa, x1 = 0.5682): 1.041 ± 0.0089 mPa·s; viscosity (298.15 K, 101.33 kPa, x1 = 0.6617): 1.338 ± 0.011 mPa·s; viscosity (298.15 K, 101.33 kPa, x1 = 0.7552): 1.713 ± 0.015 mPa·s; viscosity (298.15 K, 101.33 kPa, x1 = 0.8805): 2.418 ± 0.021 mPa·s; viscosity (298.15 K, 101.33 kPa, x1 = 0.9606): 3.057 ± 0.028 mPa·s; viscosity (303.15 K, 100 kPa, x2 = 0.0249): 2.804 ± 0.033 mPa·s; viscosity (303.15 K, 100 kPa, x2 = 0.081): 2.365 ± 0.028 mPa·s; viscosity (303.15 K, 100 kPa, x2 = 0.1471): 1.945 ± 0.024 mPa·s; viscosity (303.15 K, 100 kPa, x2 = 0.259): 1.415 ± 0.018 mPa·s; viscosity (303.15 K, 100 kPa, x2 = 0.3365): 1.145 ± 0.015 mPa·s; viscosity (303.15 K, 100 kPa, x2 = 0.3987): 0.971 ± 0.013 mPa·s; viscosity (303.15 K, 100 kPa, x2 = 0.4734): 0.805 ± 0.011 mPa·s; viscosity (303.15 K, 100 kPa, x2 = 0.5627): 0.655 ± 0.009 mPa·s; viscosity (303.15 K, 100 kPa, x2 = 0.6484): 0.551 ± 0.008 mPa·s; viscosity (303.15 K, 100 kPa, x2 = 0.734): 0.474 ± 0.007 mPa·s; viscosity (303.15 K, 100 kPa, x2 = 0.8184): 0.417 ± 0.007 mPa·s; viscosity (303.15 K, 100 kPa, x2 = 0.9043): 0.371 ± 0.006 mPa·s; viscosity (308.15 K, 100 kPa, x2 = 0.0249): 2.453 ± 0.029 mPa·s; viscosity (308.15 K, 100 kPa, x2 = 0.081): 2.08 ± 0.025 mPa·s; viscosity (308.15 K, 100 kPa, x2 = 0.1471): 1.72 ± 0.021 mPa·s; viscosity (308.15 K, 100 kPa, x2 = 0.259): 1.262 ± 0.016 mPa·s; viscosity (308.15 K, 100 kPa, x2 = 0.3365): 1.03 ± 0.013 mPa·s; viscosity (308.15 K, 100 kPa, x2 = 0.3987): 0.879 ± 0.012 mPa·s; viscosity (308.15 K, 100 kPa, x2 = 0.4734): 0.739 ± 0.01 mPa·s; viscosity (308.15 K, 100 kPa, x2 = 0.5627): 0.604 ± 0.009 mPa·s; viscosity (308.15 K, 100 kPa, x2 = 0.6484): 0.515 ± 0.008 mPa·s; viscosity (308.15 K, 100 kPa, x2 = 0.734): 0.438 ± 0.007 mPa·s; viscosity (308.15 K, 100 kPa, x2 = 0.8184): 0.39 ± 0.006 mPa·s; viscosity (308.15 K, 100 kPa, x2 = 0.9043): 0.349 ± 0.006 mPa·s; viscosity (308.15 K, 101.33 kPa, x1 = 0.0652): 0.368 ± 0.0035 mPa·s; viscosity (308.15 K, 101.33 kPa, x1 = 0.1304): 0.3956 ± 0.0037 mPa·s; viscosity (308.15 K, 101.33 kPa, x1 = 0.2489): 0.4627 ± 0.0042 mPa·s; viscosity (308.15 K, 101.33 kPa, x1 = 0.3595): 0.5523 ± 0.0049 mPa·s; viscosity (308.15 K, 101.33 kPa, x1 = 0.4654): 0.6821 ± 0.0059 mPa·s; viscosity (308.15 K, 101.33 kPa, x1 = 0.5682): 0.841 ± 0.0072 mPa·s; viscosity (308.15 K, 101.33 kPa, x1 = 0.6617): 1.062 ± 0.009 mPa·s; viscosity (308.15 K, 101.33 kPa, x1 = 0.7552): 1.353 ± 0.011 mPa·s; viscosity (308.15 K, 101.33 kPa, x1 = 0.8805): 1.931 ± 0.017 mPa·s; viscosity (308.15 K, 101.33 kPa, x1 = 0.9606): 2.382 ± 0.021 mPa·s; viscosity (313.15 K, 100 kPa, x2 = 0.0249): 2.155 ± 0.026 mPa·s; viscosity (313.15 K, 100 kPa, x2 = 0.081): 1.836 ± 0.022 mPa·s; viscosity (313.15 K, 100 kPa, x2 = 0.1471): 1.526 ± 0.019 mPa·s; viscosity (313.15 K, 100 kPa, x2 = 0.259): 1.132 ± 0.014 mPa·s; viscosity (313.15 K, 100 kPa, x2 = 0.3365): 0.936 ± 0.012 mPa·s; viscosity (313.15 K, 100 kPa, x2 = 0.3987): 0.798 ± 0.011 mPa·s; viscosity (313.15 K, 100 kPa, x2 = 0.4734): 0.674 ± 0.009 mPa·s; viscosity (313.15 K, 100 kPa, x2 = 0.5627): 0.557 ± 0.008 mPa·s; viscosity (313.15 K, 100 kPa, x2 = 0.6484): 0.485 ± 0.007 mPa·s; viscosity (313.15 K, 100 kPa, x2 = 0.734): 0.414 ± 0.007 mPa·s; viscosity (313.15 K, 100 kPa, x2 = 0.8184): 0.366 ± 0.006 mPa·s; viscosity (313.15 K, 100 kPa, x2 = 0.9043): 0.327 ± 0.006 mPa·s
